# Laboratory results reported in patent publication US8101389B2, “Bacterial glutamine synthetases and methods of use” (Athenix Corp, priority 2006, dated 2012).
# Entries after “also recorded” stand apart in the source; their conditions may differ.
# Tests used:
# [1] = system: E. coli cells with AGS1 variant AGS1m17, F81S, P185S, H212T, V214A, G218S, I303N, SEQ ID NO:34; test: growth of E. coli on glufosinate plates, ags1m17; format: cell-based
# Protocol: (§1) Clones expressing AGS1m17, AGS1m18, AGS1m19, or AGS1m20 were all found to be able to grow on plates containing 375 mM glufosinate, whereas no growth of clones expressing AGS1m16 was observed on plates containing 375 mM glufosinate.
# ATX 20345 = test: Growth of strain ATX 20345 in minimal medium with glufosinate; format: cell-based, Serratia marcescens; conditions: no other nitrogen source, 21° C.
# Protocol: (§2) A glufosinate resistant bacterial strain (ATX 20345) was isolated from a soil sample via a soil suspension by placing approximately 0.01 grams soil in 500 μl sterile water. The soil suspension was vortexed, and 20 μl was used to inoculate a 2.5 ml minimal medium culture supplemented with 5 mM glufosinate (Riedel-de Habël, available through Sigma-Aldrich, St. Louis, Mo.). The minimal medium contains the following ingredients (per 1 liter): 10 grams sucrose, 1 ml 0.8M MgSO4, 1 ml 0.1M CaCl2, 1 ml trace elements, 2.38 grams KH2PO4, 5.64 grams K2HPO4. The pH is adjusted to 7.0, and the solution is sterilized with a 0.2 μm filter. Trace elements consist of (per 100 ml) 0.1 g FeSO4.7H2O, 0.5 mg CuSO4.5H2O, 1.0 mg H3BO3, 1.0 mg MnSO4.5H2O, 7.0 mg ZnSO4.7H2O, 1.0 mg MoO3, 4.0 g KCl. No additional nitrogen source was provided in the medium. Cultures were grown at 21° C. on a rotary shaker for 3 days then transferred to fresh minimal medium containing 5 mM glufosinate and incubated at 21° C. After 2 days, the cultures were used to inoculate fresh minimal medium with 5 mM glufosinate. After 2 days, the cultures were plated onto Luria Bertani (LB) agar and then restruck for isolation. […] Colonies on LB agar are pinkish-red, raised, circular, and 1-2 mm in diameter. ATX20345 was typed by fatty acid analysis (as known in the art), and determined to be a strain of Serratia marcescens. […]
# [2] = system: Serratia marcescens ATX 20345; test: growth of strain ATX 20345 in glufosinate; format: cell-based; conditions: minimal medium; growth above 50 mM was not tested
# Protocol: as §2
# [3] = system: E. coli cells with AGS1 variant AGS1m2 (pAX3422), F81S, P185S, G218S, I303N, SEQ ID NO:6; test: growth of E. coli on herbicide plates, ags1m2; format: cell-based; conditions: 200 mM glufosinate
# Protocol: Mutants of the bacterial glutamine synthetase gene ags1 (SEQ ID NO:1) were created by error-prone mutagenesis using the GENEMORPH® Random Mutagenesis kit, and also using oligo-directed mutagenesis as known in the art. However, many methods are available for creating libraries of mutants. The resulting mutants were cloned into a pUC19 vector, electroporated into either XL-1 or DH5 alpha E. coli cells, and selected for growth on M63+ agar media containing antibiotic and 2, 10, or 20 mM glufosinate. Twenty-two clones were identified as growing on 20 mM glufosinate, and picked for further analysis.
# ags1m2 was mutagenized by error-prone mutagenesis using GENEMORPH® II Random Mutagenesis kit (Stratagene) according to manufacturer's instructions. Mutagenized PCR product was digested with Sac I and Hind III, and ligated into a pUC vector, similarly digested with Sac I and Hind III. Ligations were transformed into E. coli cells, and plated onto M63+ plates containing antibiotic, and 125 mM glufosinate. Clones growing on 125 mM glufosinate plates were retested on 200 mM glufosinate plates, and compared to similar platings of ags1m1 and ags1m2. […] The DNA sequence of the ags open reading frame in pAX3439 was sequenced, and the gene designated as ags1m16. The DNA sequence of ags1m16 is represented herein as SEQ ID NO:31, and the amino acid sequence is represented herein as SEQ ID NO:32. […]
# [4] = system: E. coli cells with AGS1 variant AGS1m16 (pAX3439), F81S, P185S, H212N, G218S, I303N, SEQ ID NO:32; test: growth of E. coli on glufosinate plates, ags1m16; format: cell-based
# Protocol: ags1m2 was mutagenized by error-prone mutagenesis using GENEMORPH® II Random Mutagenesis kit (Stratagene) according to manufacturer's instructions. Mutagenized PCR product was digested with Sac I and Hind III, and ligated into a pUC vector, similarly digested with Sac I and Hind III. Ligations were transformed into E. coli cells, and plated onto M63+ plates containing antibiotic, and 125 mM glufosinate. Clones growing on 125 mM glufosinate plates were retested on 200 mM glufosinate plates, and compared to similar platings of ags1m1 and ags1m2. […] The DNA sequence of the ags open reading frame in pAX3439 was sequenced, and the gene designated as ags1m16. The DNA sequence of ags1m16 is represented herein as SEQ ID NO:31, and the amino acid sequence is represented herein as SEQ ID NO:32. AGS1m16 differs from AGS1m2 at a single amino acid at position H212 of the protein, which is modified from Histidine (‘H’) to Asparagine (‘N’), and contains a total of five amino acid changes relative to the wild-type AGS1 (see FIG. 1 and Table 3).
# as §1
# [5] = molecular target: Serratia marcescens glutamine synthetase AGS1 variant AGS1m17(AD-), F81S, P185S, H212T, V214A, G218S, I303N plus tyrosine 398 to phenylalanine, SEQ ID NO:46 (Serratia marcescens, UniProt A0A0F6KS08, F81S/G218S/H212T/I303N/P185S/V214A/Y398F); test: enzymatic assay, kinetics of AGS1m17(AD-); format: biochemical
# Serratia marcescens glutamine synthetase AGS1 variant AGS1m17(AD-), F81S, P185S, H212T, V214A, G218S, I303N plus tyrosine 398 to phenylalanine, SEQ ID NO:46, sequence (A0A0F6KS08 whole entry F81S/P185S/H212T/V214A/G218S/I303N/Y398F): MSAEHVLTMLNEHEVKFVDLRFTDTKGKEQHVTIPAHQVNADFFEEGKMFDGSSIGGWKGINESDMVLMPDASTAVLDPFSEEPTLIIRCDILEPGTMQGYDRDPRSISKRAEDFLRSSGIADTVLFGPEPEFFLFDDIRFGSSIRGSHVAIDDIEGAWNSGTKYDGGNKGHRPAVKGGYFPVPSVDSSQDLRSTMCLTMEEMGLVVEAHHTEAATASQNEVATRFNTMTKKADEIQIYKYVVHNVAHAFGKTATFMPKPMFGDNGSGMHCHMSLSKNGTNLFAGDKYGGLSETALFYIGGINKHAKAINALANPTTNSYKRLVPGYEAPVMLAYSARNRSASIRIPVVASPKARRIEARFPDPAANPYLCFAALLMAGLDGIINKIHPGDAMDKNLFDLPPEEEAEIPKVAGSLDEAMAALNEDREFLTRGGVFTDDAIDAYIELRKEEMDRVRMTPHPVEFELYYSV
# Protocol: ags1m17(ad-) (SEQ ID NO:45) encoding the AGS1m17(AD-) protein (SEQ ID NO:46), is a variant of ags1m17 in which the putative adenylylation site has been removed by mutating the tyrosine at position 398 of AGS1 to a phenylalanine by site directed mutagenesis.
# The unmodified enzyme (AGS1) was compared to AGS1(AD-) and AGS1m17(AD-) by carrying out enzymatic assays on both enzymes following purification from E. coli. A glutamine synthetase enzyme from E. coli (GlnA) was also tested.
# [6] = molecular target: Serratia marcescens glutamine synthetase AGS1 variant AGS1m1 (pAX3421), V39I, V214M, SEQ ID NO:4 (Serratia marcescens, UniProt A0A0F6KS08, V214M/V39I); test: enzymatic assay of purified 6Xhis AGS1m1 with glufosinate; format: biochemical; conditions: 100 uM glufosinate
# Serratia marcescens glutamine synthetase AGS1 variant AGS1m1 (pAX3421), V39I, V214M, SEQ ID NO:4, sequence (A0A0F6KS08 whole entry V39I/V214M): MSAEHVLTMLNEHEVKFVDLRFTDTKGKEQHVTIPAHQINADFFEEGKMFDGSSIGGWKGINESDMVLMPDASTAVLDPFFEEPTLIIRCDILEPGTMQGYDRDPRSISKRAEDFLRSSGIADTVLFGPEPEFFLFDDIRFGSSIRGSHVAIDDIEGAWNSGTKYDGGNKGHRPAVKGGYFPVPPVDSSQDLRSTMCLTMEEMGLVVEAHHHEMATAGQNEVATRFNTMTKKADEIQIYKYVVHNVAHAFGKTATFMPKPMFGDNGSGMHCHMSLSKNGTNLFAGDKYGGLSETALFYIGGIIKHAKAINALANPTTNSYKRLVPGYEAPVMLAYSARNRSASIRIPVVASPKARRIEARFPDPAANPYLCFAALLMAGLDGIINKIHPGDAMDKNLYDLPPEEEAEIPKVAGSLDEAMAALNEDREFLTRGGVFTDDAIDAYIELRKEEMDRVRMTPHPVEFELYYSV
# Excerpt: ags1m1 (pAX3421) and ags1m2 (pAX3422) were subcloned into E. coli expression vector pRSF1B (Invitrogen) so as to create an N-terminus encoding a 6Xhis tag, purified and characterized kinetically.
smiles,measurement,setting,value
CP(=O)(O)CCC(N)C(=O)O (stereo not shown) [glufosinate],growth on plates containing 375 mM glufosinate,[1],able to grow
same,growth of ATX 20345 in the presence of glufosinate,ATX 20345,ability to grow in the presence of 5 mM glufosinate; also recorded: grows well through 50 mM
same,glufosinate concentration through which ATX 20345 grows well,[2],≥ 50 mM
same,growth on 200 mM glufosinate plates,[3],did not grow
same,growth on 200 mM glufosinate plates,[4]; 200 mM glufosinate,ability to grow
same,growth on plates containing 375 mM glufosinate,[4]; 375 mM glufosinate,no growth
same,glufosinate concentrations up to which cells are able to grow,[4]; cells containing AGS1m16,200 mM
same,Ki,[5],23 mM
same,(Kcat*Ki)/Km,"[5]; Table 5, Km glutamate, Ki glufosinate",110.04
same,activity in the presence of glufosinate,[6],showed activity
